Experimental data reported in PubChem BioAssay (NCI).
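Tested at 5 concentrations; 48 h exposure; 96-well plates; endpoints linearly interpolated, else capped at highest concentration. GI50: concentration for 50% inhibition of growth. TGI marks complete inhibition of growth.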

What was measured:
Assay in all cases: growth of human tumour cells (NCI), 48 h
[1] = system: IGROV1 ovarian
[2] = system: SF-268 CNS
[3] = system: SK-MEL-2 melanoma
[4] = system: UACC-62 melanoma
[5] = system: NCI-H522 lung
[6] = system: OVCAR-4 ovarian
[7] = system: HS 578T breast
[8] = system: OVCAR-8 ovarian
[9] = system: MDA-MB-231 breast
[10] = system: 786-0 renal
[11] = system: ACHN renal
[12] = system: BT-549 breast
[13] = system: UO-31 renal
[14] = system: NCI/ADR-RES ovarian
[15] = system: HCC-2998 colon
[16] = system: LOX IMVI melanoma
[17] = system: RPMI-8226 leukemia
[18] = system: K-562 leukemia
[19] = system: KM12 colon
[20] = system: NCI-H226 lung
[21] = system: TK-10 renal
[22] = system: SR leukemia
[23] = system: HCT-116 colon
[24] = system: HL-60(TB) leukemia
[25] = system: SK-MEL-5 melanoma
[26] = system: SF-295 CNS
[27] = system: CCRF-CEM leukemia
[28] = system: SW-620 colon
[29] = system: UACC-257 melanoma
[30] = system: MDA-MB-435
[31] = system: HOP-92 NSCLC
[32] = system: COLO 205 colon
[33] = system: SF-539 CNS
[34] = system: OVCAR-3 ovarian
[35] = system: CAKI-1 renal
[36] = system: HOP-62 NSCLC
[37] = system: MOLT-4 leukemia
[38] = system: A549 NSCLC
[39] = system: PC-3 prostate
[40] = system: DU-145 prostate
[41] = system: U251 CNS
[42] = system: A498 renal
[43] = system: MALME-3M melanoma
[44] = system: NCI-H23 lung
[45] = system: SK-OV-3 ovarian
[46] = system: HT29 colon
[47] = system: MCF7 breast
[48] = system: SNB-19 CNS
[49] = system: T-47D breast
[50] = system: NCI-H460 lung
[51] = system: EKVX NSCLC
[52] = system: HCT-15 colon
[53] = system: SN12C renal
[54] = system: SNB-75 CNS
[55] = system: MDA-MB-468 breast
[56] = system: M14 melanoma

Compound `O=C1NC(=O)c2c1c1c3cc(Br)ccc3[nH]c1c1oc3ccc(F)cc3c21` has a GI50 [1] of 1.03 µM, a TGI [1] of 3.15 µM and a GI50 [2] of 2.61 µM. The TGI [2] was 7.8 µM, the GI50 [3] was 2.21 µM and the TGI [3] was 6.17 µM. The GI50 [4] was 1.39 µM, the TGI [4] was 4.88 µM and the GI50 [5] was 1.42 µM. The TGI [5] was 3.31 µM, the GI50 [6] was 1.55 µM and the TGI [6] was 3.33 µM. The GI50 [7] was 1.91 µM, the TGI [7] was 4.66 µM and the GI50 [8] was 1.67 µM. It also gave a TGI [8] of 4.77 µM, a GI50 [9] of 1.57 µM and a TGI [9] of 3.58 µM. The GI50 [10] was 3.62 µM, the TGI [10] was 21.9 µM and the GI50 [11] was 1.97 µM. The TGI [11] was 5.3 µM, the GI50 [12] was 9.86 µM and the TGI [12] was > 100 µM. The GI50 [13] was 0.358 µM, the TGI [13] was > 100 µM and the GI50 [14] was 3.43 µM. For the same compound, the TGI [14] was > 100 µM, the GI50 [15] was 3.39 µM and the TGI [15] was 45.6 µM. It also gave a GI50 [16] of 1.43 µM, a TGI [16] of 2.77 µM and a GI50 [17] of 3.71 µM. For the same compound, the TGI [17] was > 100 µM, the GI50 [18] was 3.66 µM and the TGI [18] was > 100 µM. The GI50 [19] was 2.87 µM, the TGI [19] was > 100 µM and the GI50 [20] was 1.1 µM. The TGI [20] was 2.6 µM, the GI50 [21] was 3.47 µM and the TGI [21] was > 100 µM. For the same compound, the GI50 [22] was 4.47 µM, the TGI [22] was > 100 µM and the GI50 [23] was 3 µM. For the same compound, the TGI [23] was > 100 µM, the GI50 [24] was > 100 µM and the TGI [24] was > 100 µM. The GI50 [25] was 3.72 µM, the TGI [25] was > 100 µM and the GI50 [26] was 5.95 µM. The TGI [26] was > 100 µM, the GI50 [27] was 0.2 µM and the TGI [27] was > 100 µM. For the same compound, the GI50 [28] was 2.39 µM, the TGI [28] was > 100 µM and the GI50 [29] was 6.09 µM. The TGI [29] was > 100 µM, the GI50 [30] was 4.24 µM and the TGI [30] was > 100 µM. For the same compound, the GI50 [31] was 1.59 µM, the TGI [31] was 4.52 µM and the GI50 [32] was 2.96 µM. For the same compound, the TGI [32] was > 100 µM, the GI50 [33] was 1.79 µM and the TGI [33] was 3.53 µM. It also gave a GI50 [34] of 2.14 µM, a TGI [34] of 5.3 µM and a GI50 [35] of 2.25 µM. For the same compound, the TGI [35] was > 100 µM, the GI50 [36] was 1.58 µM and the TGI [36] was 3.52 µM. For the same compound, the GI50 [37] was 0.533 µM, the TGI [37] was > 100 µM and the GI50 [38] was 6.84 µM. For the same compound, the TGI [38] was > 100 µM, the GI50 [39] was 1.69 µM and the TGI [39] was 4.99 µM. The GI50 [40] was 3.21 µM, the TGI [40] was > 100 µM and the GI50 [41] was 1.73 µM. The TGI [41] was 3.87 µM, the GI50 [42] was 2.02 µM and the TGI [42] was 3.54 µM. The GI50 [43] was 1.42 µM, the TGI [43] was 4.01 µM and the GI50 [44] was 1.75 µM. For the same compound, the TGI [44] was 4.06 µM, the GI50 [45] was 2.04 µM and the TGI [45] was 5.37 µM. For the same compound, the GI50 [46] was 3.59 µM, the TGI [46] was > 100 µM and the GI50 [47] was 0.877 µM. It also gave a TGI [47] of 3.32 µM, a GI50 [48] of 2.17 µM and a TGI [48] of 6.04 µM. For the same compound, the GI50 [49] was 1.24 µM, the TGI [49] was 4.51 µM and the GI50 [50] was 1.46 µM. For the same compound, the TGI [50] was 3.32 µM, the GI50 [51] was 3.99 µM and the TGI [51] was > 100 µM. The GI50 [52] was 2.93 µM, the TGI [52] was > 100 µM and the GI50 [53] was 1.71 µM. It also gave a TGI [53] of 3.69 µM, a GI50 [54] of 2.09 µM and a TGI [54] of 7.99 µM. For the same compound, the GI50 [55] was 1.35 µM, the TGI [55] was 3.06 µM and the GI50 [56] was 3.16 µM. For the same compound, the TGI [56] was > 100 µM.
